Read-outs that look alike come from different tables or passages of the source.

Data set [1] concerns T1, recombinant human PDE4.
T1 construct: PDE4 IC50; other: human recombinant PDE4
The data set is described as follows: PDE4 inhibition, recombinant human PDE4 (charcoal separation PDE assay). Type of data set: biochemical. The protocol:
The compounds of structural formula (II) were tested for an ability to inhibit PDE4. The ability of a compound to inhibit PDE4 activity is related to the IC50 value for the compound, i.e., the concentration of inhibitor required for 50% inhibition of enzyme activity. The IC50 value for compounds of structural formula (II) were determined using recombinant human PDE4.
Phosphodiesterase activity of the preparations was determined as follows. PDE assays utilizing a charcoal separation technique were performed essentially as described in Loughney et al. (1996). In this assay, PDE activity converts [32P]cAMP or [32P]cGMP to the corresponding [32P]5′-AMP or [32P]5′-GMP in proportion to the amount of PDE activity present. The [32P]5′-AMP or [32P]5′-GMP then was quantitatively converted to free [32P]phosphate and unlabeled adenosine or guanosine by the action of snake venom 5′-nucleotidase. […] The assay was performed at 30° C. in a 100 μL reaction mixture containing (final concentrations) 40 mM Tris HCl (pH 8.0), 1 μM ZnSO4, 5 mM MgCl2, and 0.1 mg/mL bovine serum albumin (BSA). Alternatively, in assays assessing PDEl-specific activity, incubation mixtures further incorporated the use of 0.1 mM CaCl2 and 10 μg/mL calmodulin. PDE enzyme was present in quantities that yield <30% total hydrolysis of substrate (linear assay conditions). The assay was initiated by addition of substrate ([…] [32P]cAMP or cGMP), and the mixture was incubated for 12 minutes. Seventy-five (75) μg of Crotalus atrox venom then was added, and the incubation was continued for 3 minutes (15 minutes total). The reaction was stopped by addition of 200 μL of activated charcoal (25 mg/mL suspension in 0.1 M NaH2PO4, pH 4). After centrifugation (750×g for 3 minutes) to sediment the charcoal, a sample of the supernatant was taken for radioactivity determination in a scintillation counter and the PDE activity was calculated.
The table below illustrates the ability of compounds of formula (II) to inhibit PDE4 activity and TNFα release in vitro. In the following table, the IC50 values were determined against human recombinant PDE4.

Data set [2] concerns human peripheral blood lymphocytes (PBL). The data set is described as follows: Lipopolysaccharide-stimulated TNFα release from human peripheral blood lymphocytes. As to conditions: LPS-stimulated TNFα release from human PBL. Type of data set: cell-based. As for the experimental part: The compounds of structural formula (II) also were tested for an ability to reduce TNFα secretion in human peripheral blood lymphocytes. The ability to reduce TNFα secretion is related to the EC50 values (i.e., the effective concentration of the compound capable of inhibiting 50% of the total TNFα).
To assess the ability of a compound to reduce TNFα secretion in human peripheral blood lymphocytes (PBL), the following tests were performed.
Heparinized blood (approximately 30 mL) drawn from human volunteers was mixed 1:1 with Dulbecco's modified phosphate-buffered saline. This mixture was mixed 1:1 with HISTOPAQUE® and centrifuged at 1,500 rpm at room temperature without braking in the swinging bucket of a Beckman model TJ6 centrifuge. Erythrocytes were centrifuged to the bottom of the tubes, and serum remained at the surface of the tubes. A layer containing lymphocytes sedimented between the serum and HISTOPAQUE® layers, and was removed by aspiration to a fresh tube. The cells were quantified and adjusted to 3×10^6 cells/mL and a 100 μL aliquot is placed into the wells of a 96 well plate. Test compounds and RPMI media (Gibco/BRL Life Sciences) are added to each of the wells 15 minutes prior to addition of bacterial LPS ([…]). The mixture was allowed to incubate for 20 hours at 37° C. in a humidified chamber. The cells then were separated by centrifuging at 800 rpm for 5 minutes at room temperature. An aliquot of 180 μL of supernatant was transferred to a new plate for determination of TNFα concentration. TNFα protein in the cell supernatant fluids was measured using a commercially available enzyme-linked immunosorbent assay (ELISA) (CYTOSCREEN® Immunoassay Kit from Biosource International).
The cell-based assay provided the following results for various pyrrolidine compounds of the present invention. The EC50 values (i.e., effective concentration of the compound capable of inhibiting 50% of the total TNFα) illustrate the ability of the present compounds to inhibit LPS-stimulated TNFα release from human PBL.

A further data set has as its system female Balb/c mice. Briefly: Combined mouse endotoxin-stimulated TNFα release and locomotor activity assay (spontaneous mobility). Type of data set: in vivo. The conditions noted are these: i.p., 50 mg/kg dose, locomotor activity. The protocol: (§1) The purpose of this study was to determine the efficacy of PDE4 inhibitors in vivo in an LPS mouse model together with a determination with respect to central nervous system (CNS) side-effects manifested by a decrease in spontaneous mobility.
(§2) The test animals were female Balb/c mice, having an average weight of about 20 g. The PDE4 inhibitors, formulated in 30% Cremophor® EL, were administered via intraperitoneal (i.p.) injections at doses of 0.1, 1.0, 10.0, and 100 mg/kg. Individual dose volumes (about 150 μL) were adjusted based on the body weights measured. One hour later, 5 mg/kg LPS in a final volume of 200 μL was injected via the tail vein to each animal. Ninety minutes following the LPS treatment, the animals were bled and serum samples were collected before being stored at −70° C. until assayed.
(§3) Movement of the X-Y plane, or rearina up on the hind legs, was quantified by counting the number of “light-beam” crosses per unit of time. A decrease in the number of activity events is directly proportional to the mobility or immobilization of the animal. The quantitative scoring correlated well with the subjective measurements described above.
(§4) The following table summarizes the locomotor activity assay (mobility, % activity) results obtained by the above-described method:
(§5) effective dose, in mg/kg, that decreases spontaneous mobility 50% of control.

Assay in data set [3]: as above
The conditions noted are these: female, Balb/c, in vivo, ip, locomotor activity, read-out: ED50 (effective dose that decreases spontaneous mobility 50% of control). The class given is in vivo. As for the experimental part:
as §1, §2, §3, §4, §5

The conditions of data set [4]: in vivo; cited from earlier work.
The test system of data set [5] is recombinant human PDE4. As to conditions: prior art value; read-out: IC50 with respect to inhibiting recombinant human PDE4 (reported); cited from earlier work.

Broadly, the IC50 is the midpoint of a concentration-inhibition curve. One may read the EC50 as the concentration at which the effect is half-maximal. For `COC(=O)N1CC(c2ccc(OC)c(OC3Cc4ccccc4C3)c2)[C@](C)(/C(C)=N\O)C1` (mixture of isomers) [Example 3], in the data set with recombinant human PDE4 [1], the IC50 came to 189 nM. The molecule further yielded an EC50 in data set [2] (Homo sapiens, Lymphocyte) of 551 nM.

Regarding `CN/N=C(\C)C1(C)CN(C(=O)OC)CC1c1ccc(OC)c(OC2CCCC2)c1` (single isomer, unassigned) [Example 1a], the IC50 with recombinant human PDE4 [1] was 116 nM. Moreover, the “Mobility (% activity at 50 mg/kg dose)” value in the data set with female Balb/c mice came to 64% activity. Also, the half-maximal effective concentration (EC50) in data set [2] was determined as 76 nM.

For the molecule `CN/N=C(\C)C1(C)CN(C(=O)OC)CC1c1ccc(OC)c(OC2CCCC2)c1` (single isomer, unassigned) [Example 1b], the IC50 in the data set on recombinant human PDE4 [1] is 2.2 nM. For the same molecule, the “Mobility (% activity at 50 mg/kg dose)” value in the data set with female Balb/c mice is recorded as 6% activity. It took 2.2 nM to reach a half-maximal effect in data set [2] (EC50).

Usually ED50 stands for the midpoint of the dose-response relation. In the case of `COC(=O)N1CC(c2ccc(OC)c(OC3CCCC3)c2)[C@](C)(/C(C)=N\O)C1` (some centres unmarked) [Example 2a], the IC50 in the data set with recombinant human PDE4 [1] is 49 nM. In addition, in data set [3], the ED50 is more than 50 mg/kg. Further, a half-maximal effect in data set [2] (Homo sapiens, Lymphocyte) (EC50) was put at 281 nM.

In the case of `COC(=O)N1CC(c2ccc(OC)c(OC3CCCC3)c2)[C@@](C)(/C(C)=N\O)C1` (some centres unmarked) [Example 2b], in the data set with recombinant human PDE4 [1], the IC50 was 2.2 nM. Moreover, the ED50 in data set [3] was found to be 7 mg/kg. Also, in data set [2] (Homo sapiens, Lymphocyte), the EC50 stood at 23 nM.

For `COc1ccc([C@@H]2CNC(=O)C2)cc1OC1CCCC1` [R-rolipram], the “Emetic potency relative to the (+)-enantiomer” value in data set [4] was “about ten-fold more emetic”.

With `COc1ccc(C2CNC(=O)C2)cc1OC1CCCC1` (centres unmarked) [Rolipram], the IC50 in the data set on recombinant human PDE4 [5] is approximately 200 nM.

With `COC(=O)N1CC(c2ccc(OC)c(OC3CCCC3)c2)C(C)(C(C)=O)C1` (centres unmarked) [formula (I)], the IC50 in the data set on recombinant human PDE4 [5] is approximately 2 nM.

These data come from patent US6500856B2, “Cyclic AMP-specific phosphodiesterase inhibitors” (Icos Corporation, priority 1999, dated 2002).
